Patent US7732200B2, “Materials and methods for nerve grafting, selection of nerve grafts, and in vitro nerve tissue culture” (University of Florida Research Foundation, Inc., priority 2001, dated 2010)

Key:
[1] = system: nerve segments; assay: Dissociation culture (squash preparations) of cultured nerve segments; assay type: cell-based, rat; details: nerves cultured 2 days, 2% serum, with GM6001
[2] = system: Schwann cell cultures; assay: Treatment of isolated Schwann cell cultures; assay type: cell-based
[3] = system: MMP gelatinolytic activity; assay: In situ zymography of cultured nerve explants; assay type: biochemical, rat; details: nerves cultured 2 days, 2% serum, in the presence of GM6001
Method: In situ zymography for nerve predegeneration experiments. Cryosections (10 μm) of unfixed normal and cultured nerves were mounted on slides and overlaid with reaction buffer (50 mM Tris-HCl, 150 mM NaCl, 5 mM CaCl2, 0.2 mM sodium azide, pH 7.6) containing 20 μg/ml of intramolecularly quenched, fluorescein-labeled gelatin substrate (MOLECULAR PROBES INC., Eugene, Oreg.) (Oh et al., 1999). In the control condition, the MMP inhibitor EDTA (30 mM) was included in the reaction buffer. After incubation for 24 h at 37° C., the sections were rinsed with PBS and fixed with 4% paraformaldehyde in phosphate buffer. The sections were rinsed with water and mounted using Citifluor. Fluorescein-gelatin peptides generated by gelatinolytic activity in the tissue sections were observed and photographed by epifluorescence microscopy.
The activity of MMPs is regulated by gene transcription, proenzyme activation and by the action of tissue inhibitors of metalloproteinases. The net gelatinolytic activity in nerve segments by in situ zymography was examined. Tissue sections were overlaid with quenched, fluorescein-gelatin, which is converted to fluorescent peptides by gelatinolytic activity within tissues. Constitutive gelatinolytic activity was detected in normal nerve mostly associated with Schwann cells aligned along the endoneurial basal lamina (as shown in FIGS. 17A and 17B). […]

## CNC(=O)[C@H](Cc1c[nH]c2ccccc12)NC(=O)[C@@H](CC(=O)NO)CC(C)C [GM6001]
[1]
  cell viability of nerve segments (cell outgrowth): no loss of cell viability
[2]
  toxicity to isolated Schwann cell cultures: very low toxicity
[3]
  gelatinolytic activity in nerve explants: nearly undetectable
